Like-named read-outs stand apart in the source and are kept apart here.
Experiments:
Capan-1 (K-Ras G12V) = experiment: CellTiter-Glo cell viability assay, 5-day treatment; type: cell-based; details: Homo sapiens, CAPAN-1, 120 h, 5-day treatment; read-out: Capan-1 Cell Viability assay data (K-Ras G12V, IC50)
Outline: (§1)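 Luminescence read-out after 5 days of compound exposure, with plates first brought to room temperature for roughly 30 minutes. Values are percent of averaged DMSO wells, fitted by four-parameter logistic regression.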

NCI-H358 (K-Ras G12C) = experiment: as above; type: cell-based; details: Homo sapiens, NCI-H358, 120 h, 5-day treatment; read-out: H358 Cell Viability assay data (K-Ras G12C, IC50)
Outline: as §1

KRAS G12C = KRAS G12C (Homo sapiens, UniProt P01116+P62937, G12C); experiment: Disruption of BRAF RBD interaction with Ras (FRET / MOA assay, with Cyclophilin A); type: biochemical
KRAS G12C, sequence (P01116 1-169 isoform P01116-2 G12C): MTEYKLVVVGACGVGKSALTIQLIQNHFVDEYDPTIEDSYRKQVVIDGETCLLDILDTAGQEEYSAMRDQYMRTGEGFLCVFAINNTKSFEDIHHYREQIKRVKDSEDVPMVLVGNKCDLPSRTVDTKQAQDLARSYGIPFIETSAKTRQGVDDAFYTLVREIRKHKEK
KRAS G12C, sequence (P62937 whole entry): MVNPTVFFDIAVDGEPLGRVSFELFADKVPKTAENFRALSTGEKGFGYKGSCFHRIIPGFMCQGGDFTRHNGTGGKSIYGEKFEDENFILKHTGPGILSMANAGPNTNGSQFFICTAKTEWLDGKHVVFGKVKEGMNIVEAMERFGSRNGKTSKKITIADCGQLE
Outline: (§2)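 Compound-driven ternary complex formation between nucleotide-loaded K-Ras and Cyclophilin A was measured as loss of BRAF RBD binding. Compounds (10-point 3-fold series, top 30 μM final) were incubated 3 h at 25 °C, then anti-His Eu-W1024 (10 nM) and anti-GST allophycocyanin (50 nM) added for 1.5 h. IC50 was taken from the TR-FRET ratio decrease versus DMSO.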

KRAS G12D = KRAS G12D (Homo sapiens, UniProt P01116+P62937, G12D); experiment: as above; type: biochemical
KRAS G12D, sequence (P01116 1-169 isoform P01116-2 G12D limits assumed): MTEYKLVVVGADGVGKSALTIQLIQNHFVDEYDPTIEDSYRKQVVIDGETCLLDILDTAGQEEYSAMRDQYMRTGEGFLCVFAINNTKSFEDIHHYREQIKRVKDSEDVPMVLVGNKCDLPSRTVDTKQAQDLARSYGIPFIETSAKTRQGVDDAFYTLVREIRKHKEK
KRAS G12D, sequence (P62937 whole entry): as the sequence (P62937 whole entry) above
Outline: as §2

KRAS G12S = KRAS G12S (Homo sapiens, UniProt P01116+P62937, G12S); experiment: as above; type: biochemical
KRAS G12S, sequence (P01116 1-169 isoform P01116-2 G12S limits assumed): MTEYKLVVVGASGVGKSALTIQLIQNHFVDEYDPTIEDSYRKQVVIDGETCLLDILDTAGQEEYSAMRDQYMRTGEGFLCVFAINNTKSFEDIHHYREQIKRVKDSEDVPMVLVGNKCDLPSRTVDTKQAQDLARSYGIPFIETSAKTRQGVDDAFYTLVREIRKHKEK
KRAS G12S, sequence (P62937 whole entry): as the sequence (P62937 whole entry) above
Outline: as §2

KRAS G12V = KRAS G12V (Homo sapiens, UniProt P01116+P62937, G12V); experiment: as above; type: biochemical
KRAS G12V, sequence (P01116 1-169 isoform P01116-2 G12V limits assumed): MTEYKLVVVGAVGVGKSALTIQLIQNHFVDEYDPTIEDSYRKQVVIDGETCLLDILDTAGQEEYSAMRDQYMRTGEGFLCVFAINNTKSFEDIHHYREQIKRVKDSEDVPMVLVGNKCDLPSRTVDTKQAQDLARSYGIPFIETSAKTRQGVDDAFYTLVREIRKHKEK
KRAS G12V, sequence (P62937 whole entry): as the sequence (P62937 whole entry) above
Outline: as §2

KRAS G13C = KRAS G13C (Homo sapiens, UniProt P01116+P62937, G13C); experiment: as above; type: biochemical
KRAS G13C, sequence (P01116 1-169 isoform P01116-2 G13C): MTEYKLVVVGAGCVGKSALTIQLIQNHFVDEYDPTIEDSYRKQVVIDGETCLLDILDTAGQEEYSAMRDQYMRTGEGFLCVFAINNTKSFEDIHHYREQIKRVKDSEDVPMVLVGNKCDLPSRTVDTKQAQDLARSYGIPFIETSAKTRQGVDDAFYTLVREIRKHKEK
KRAS G13C, sequence (P62937 whole entry): as the sequence (P62937 whole entry) above
Outline: as §2

KRAS G13D = KRAS G13D (Homo sapiens, UniProt P01116+P62937, G13D); experiment: as above; type: biochemical
KRAS G13D, sequence (P01116 1-169 isoform P01116-2 G13D limits assumed): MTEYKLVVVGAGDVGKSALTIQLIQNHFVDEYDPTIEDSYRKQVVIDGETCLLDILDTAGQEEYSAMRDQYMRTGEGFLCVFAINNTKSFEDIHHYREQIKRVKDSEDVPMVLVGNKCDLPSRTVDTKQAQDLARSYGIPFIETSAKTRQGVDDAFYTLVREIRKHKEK
KRAS G13D, sequence (P62937 whole entry): as the sequence (P62937 whole entry) above
Outline: as §2

KRAS WT = KRAS WT (Homo sapiens, UniProt P01116+P62937); experiment: as above; type: biochemical
KRAS WT, sequence (P01116 1-169 isoform P01116-2 limits assumed): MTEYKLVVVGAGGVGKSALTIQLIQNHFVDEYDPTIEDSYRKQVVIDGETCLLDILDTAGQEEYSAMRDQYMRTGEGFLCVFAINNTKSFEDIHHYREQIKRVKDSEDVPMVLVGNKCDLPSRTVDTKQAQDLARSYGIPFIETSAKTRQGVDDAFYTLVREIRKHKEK
KRAS WT, sequence (P62937 whole entry): as the sequence (P62937 whole entry) above
Outline: as §2

NRAS G12C = NRAS G12C (Homo sapiens, UniProt P01111+P62937, G12C); experiment: as above; type: biochemical
NRAS G12C, sequence (P01111 whole entry G12C): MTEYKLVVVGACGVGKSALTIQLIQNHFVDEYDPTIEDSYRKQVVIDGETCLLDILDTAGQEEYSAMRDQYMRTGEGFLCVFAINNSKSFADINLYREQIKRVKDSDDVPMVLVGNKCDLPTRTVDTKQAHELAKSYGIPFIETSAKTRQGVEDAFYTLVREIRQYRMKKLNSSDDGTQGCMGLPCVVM
NRAS G12C, sequence (P62937 whole entry): as the sequence (P62937 whole entry) above

[1] = read-out: KRAS G12C FRET data, IC50
[2] = read-out: KRAS G12D FRET data, IC50
[3] = read-out: KRAS G12S FRET data, IC50
[4] = KRAS G12V, read-out: KRAS G12V FRET data IC50
[5] = read-out: KRAS G13C FRET data, IC50
[6] = KRAS G13D, read-out: KRAS G13D FRET data IC50
[7] = KRAS WT, read-out: KRAS WT FRET data IC50
[8] = NRAS G12C, read-out: NRAS G12C FRET data IC50

Row | IC50 (NCI-H358 (K-Ras G12C)) [nM] | IC50 (KRAS G12C; [1]) [nM] | IC50 (KRAS G12D; [2]) [nM] | IC50 (KRAS G12S; [3]) [nM] | IC50 (KRAS G12V; [4]) [nM] | IC50 (KRAS G13C; [5]) [nM] | IC50 (KRAS G13D; [6]) [nM] | IC50 (KRAS WT; [7]) [nM] | IC50 (NRAS G12C; [8]) [nM] | IC50 (KRAS G12C; KRAS G12C FRET data, IC50) [nM] | IC50 (KRAS G12D; KRAS G12D FRET data, IC50) [nM] | IC50 (KRAS G12S; KRAS G12S FRET data, IC50) [nM] | IC50 (KRAS G12V; KRAS G12V FRET data IC50, KRAS G12V) [nM] | IC50 (KRAS G13C; KRAS G13C FRET data, IC50) [nM] | IC50 (KRAS G13D; KRAS G13D FRET data IC50, KRAS G13D) [nM] | IC50 (KRAS WT; KRAS WT FRET data IC50, KRAS WT) [nM] | IC50 (NRAS G12C; NRAS G12C FRET data IC50, NRAS G12C) [nM] | Structure (SMILES) | IC50 (Capan-1 (K-Ras G12V)) [nM]
1 | 1000 to 10000 | 10 to 100 | 10 to 100 | 10 to 100 | 100 to 1000 | 10 to 100 | 10 to 100 | 10 to 100 | 10 to 100 |  |  |  |  |  |  |  |  | CCn1c(-c2cccnc2[C@H](C)OC)c2c3cc(ccc31)-c1cc(O)cc(c1)C[C@H](NC(=O)[C@H](C(C)C)N(C)C(=O)C1CNC1)C(=O)N1CCC[C@H](N1)C(=O)OCC(C)(C)C2 [Example A125] | 1000 to 10000
2 | 10 to 100 | 10 to 100 | 1000 to 10000 | 100 to 1000 | 100 to 1000 | 100 to 1000 | 100 to 1000 | 100 to 1000 | 10 to 100 |  |  |  |  |  |  |  |  | CCn1c(-c2cccnc2[C@H](C)OC)c2c3cc(ccc31)-c1csc(n1)C[C@H](NC(=O)[C@H](C(C)C)N(C)C(=O)N1CC(C#N)(N(C)C)C1)C(=O)N1CCC[C@H](N1)C(=O)OCC(C)(C)C2 [Example A452] | 10 to 100
3 | 1000 to 10000 | 10 to 100 | 10 to 100 | 10 to 100 | 10 to 100 | 10 to 100 | 10 to 100 | 10 to 100 | 10 to 100 |  |  |  |  |  |  |  |  | CCn1c(-c2cccnc2[C@H](C)OC)c2c3cc(ccc31)-c1cc(O)cc(c1)C[C@H](NC(=O)[C@H](C(C)C)N(C)C(=O)[C@H]1CCN(C(=O)CN)C1)C(=O)N1CCC[C@H](N1)C(=O)OCC(C)(C)C2 [Example A1] | 1000 to 10000
4 | 100 to 1000 | 10 to 100 | 100 to 1000 | 100 to 1000 | 100 to 1000 | 10 to 100 | 10 to 100 | 10 to 100 | 100 to 1000 |  |  |  |  |  |  |  |  | CCn1c(-c2cccnc2[C@H](C)OC)c2c3cc(ccc31)-c1cc(O)cc(c1)C[C@H](NC(=O)[C@H](C(C)C)N(C)C(=O)C13CNCC1C3)C(=O)N1CCC[C@H](N1)C(=O)OCC(C)(C)C2 (some centres unmarked) [Example A155] | 1000 to 10000
5 | 100 to 1000 | 10 to 100 | 1000 to 10000 | 100 to 1000 | 100 to 1000 | 100 to 1000 | 100 to 1000 | 100 to 1000 | 100 to 1000 |  |  |  |  |  |  |  |  | CCn1c(-c2cccnc2[C@H](C)OC)c2c3cc(ccc31)-c1cc(O)cc(c1)C[C@H](NC(=O)[C@H](C(C)C)N(C)C(=O)C1COC1)C(=O)N1CCC[C@H](N1)C(=O)OCC(C)(C)C2 [Example A18] | 100 to 1000
6 | 100 to 1000 |  |  |  |  |  |  |  |  | 100 to 1000 | 100 to 1000 | 100 to 1000 | 100 to 1000 | 10 to 100 | 100 to 1000 | 100 to 1000 | 100 to 1000 | CCn1c(-c2cccnc2[C@H](C)OC)c2c3cc(ccc31)-c1cc(O)cc(c1)C[C@H](NC(=O)[C@H](C(C)C)N(C)C(=O)C1CCN3CCOCC13)C(=O)N1CCC[C@H](N1)C(=O)OCC(C)(C)C2 (some centres unmarked) [Example A123] | 100 to 1000
7 | 100 to 1000 | 100 to 1000 | 1000 to 10000 | 1000 to 10000 | 100 to 1000 | 1000 to 10000 | 1000 to 10000 | 100 to 1000 | 100 to 1000 |  |  |  |  |  |  |  |  | CCn1c(-c2cccnc2[C@H](C)OC)c2c3cc(ccc31)-c1csc(n1)C[C@H](NC(=O)[C@H](C(C)C)N(C)C(=O)NC)C(=O)N1CCC[C@H](N1)C(=O)OCC(C)(C)C2 [Example A137] | 100 to 1000
8 | 100 to 1000 | 100 to 1000 | 1000 to 10000 | 100 to 1000 | 100 to 1000 | 100 to 1000 | 1000 to 10000 | 100 to 1000 | 100 to 1000 |  |  |  |  |  |  |  |  | CCn1c(-c2cnccc2COC)c2c3cc(ccc31)-c1cc(O)cc(c1)C[C@H](NC(=O)[C@H](C(C)C)N(C)C(=O)[C@@H]1CCCO1)C(=O)N1CCC[C@H](N1)C(=O)OCC(C)(C)C2 [Example A91] | 100 to 1000

From patent US20230233569A1 (Revolution Medicines, Inc., priority 2020, published 2023)
